Laboratory results published in ChEMBL document CHEMBL3217441, “Aromatic chloride to nitrile transformation: medicinal and synthetic chemistry” (Medchemcomm, 2010).

Legend:
[1] = Inhibition of HIV-1 RDDP after 30 mins by scintillation counting analysis in presence of [3H]-TTP; set-up: species or system Human immunodeficiency virus 1
[2] = Lipophilicity, log D of the compound at pH 7.4; format: physicochemical; conditions: buffer
[3] = Half life in human liver microsomes; format: ADME

SMILES	IC50 [1]	logD [2]	half-life [3]
CCc1nc(C)n(CC)c1Oc1cc(Cl)cc(C#N)c1	18 nM	3.2	16 min
CCc1nc(C)n(CC)c1Oc1cc(C#N)cc(C#N)c1	131 nM	1.9	101 min
